According to ChEMBL document CHEMBL3286394, “Synthesis and pharmacological characterization of new neuronal nicotinic acetylcholine receptor ligands derived from Sazetidine-A” (Bioorg Med Chem Lett, 2014):

How the values were obtained:
[1] = molecular target: Neuronal acetylcholine receptor; alpha3/beta4 (Rattus norvegicus, UniProt P04757+P12392); experiment: Displacement of [3H]epibatadine from rat alpha3beta4 nAChR expressed in HEK293 cells by scintillation counting analysis; type: cell-based
Neuronal acetylcholine receptor; alpha3/beta4, sequence (P04757 whole entry): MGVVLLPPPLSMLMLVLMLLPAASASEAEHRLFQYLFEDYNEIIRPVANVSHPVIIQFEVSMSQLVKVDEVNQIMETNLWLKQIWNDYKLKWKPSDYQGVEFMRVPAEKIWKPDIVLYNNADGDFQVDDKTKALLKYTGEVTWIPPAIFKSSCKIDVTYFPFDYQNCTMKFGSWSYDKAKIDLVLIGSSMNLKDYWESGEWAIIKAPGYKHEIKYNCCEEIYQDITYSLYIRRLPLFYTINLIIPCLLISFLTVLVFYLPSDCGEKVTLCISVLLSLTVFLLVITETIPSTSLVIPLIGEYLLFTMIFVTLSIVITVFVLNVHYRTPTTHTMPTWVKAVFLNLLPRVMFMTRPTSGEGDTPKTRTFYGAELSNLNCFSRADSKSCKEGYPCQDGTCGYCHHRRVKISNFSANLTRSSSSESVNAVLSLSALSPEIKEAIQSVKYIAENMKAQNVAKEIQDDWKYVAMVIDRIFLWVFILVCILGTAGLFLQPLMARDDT
Neuronal acetylcholine receptor; alpha3/beta4, sequence (P12392 whole entry): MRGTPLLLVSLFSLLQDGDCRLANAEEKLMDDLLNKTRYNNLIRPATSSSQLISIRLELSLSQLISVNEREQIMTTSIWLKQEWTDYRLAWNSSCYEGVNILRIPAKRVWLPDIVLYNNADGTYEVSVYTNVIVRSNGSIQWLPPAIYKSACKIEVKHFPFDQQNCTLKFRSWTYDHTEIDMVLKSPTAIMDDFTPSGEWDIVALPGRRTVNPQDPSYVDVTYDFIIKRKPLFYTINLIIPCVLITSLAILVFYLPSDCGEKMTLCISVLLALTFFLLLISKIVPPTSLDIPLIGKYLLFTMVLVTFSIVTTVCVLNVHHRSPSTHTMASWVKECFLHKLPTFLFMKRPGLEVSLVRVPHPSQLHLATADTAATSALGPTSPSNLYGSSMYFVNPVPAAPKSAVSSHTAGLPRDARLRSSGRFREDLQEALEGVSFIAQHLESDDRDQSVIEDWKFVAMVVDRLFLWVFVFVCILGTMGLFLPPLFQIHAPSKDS

[2] = molecular target: Neuronal acetylcholine receptor; alpha4/beta2 (Rattus norvegicus, UniProt P09483+P12390); experiment: Displacement of [3H]epibatadine from rat alpha4beta2 nAChR expressed in HEK293 cells by scintillation counting analysis; type: cell-based
Neuronal acetylcholine receptor; alpha4/beta2, sequence (P09483 whole entry): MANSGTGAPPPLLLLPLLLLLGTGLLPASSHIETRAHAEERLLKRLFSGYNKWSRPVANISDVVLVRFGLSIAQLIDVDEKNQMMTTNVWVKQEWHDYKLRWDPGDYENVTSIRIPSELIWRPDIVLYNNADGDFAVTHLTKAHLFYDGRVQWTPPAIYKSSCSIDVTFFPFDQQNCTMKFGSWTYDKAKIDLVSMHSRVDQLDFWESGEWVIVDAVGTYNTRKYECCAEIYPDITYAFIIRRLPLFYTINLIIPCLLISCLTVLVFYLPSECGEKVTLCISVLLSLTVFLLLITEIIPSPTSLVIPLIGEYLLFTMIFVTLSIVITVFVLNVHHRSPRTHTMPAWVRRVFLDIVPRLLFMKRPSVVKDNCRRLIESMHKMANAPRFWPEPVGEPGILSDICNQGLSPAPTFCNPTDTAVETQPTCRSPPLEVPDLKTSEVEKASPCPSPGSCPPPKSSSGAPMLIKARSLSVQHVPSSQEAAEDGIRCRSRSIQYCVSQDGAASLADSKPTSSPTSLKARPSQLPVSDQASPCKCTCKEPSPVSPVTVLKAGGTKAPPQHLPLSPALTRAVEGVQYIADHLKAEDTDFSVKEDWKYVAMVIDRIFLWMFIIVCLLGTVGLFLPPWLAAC
Neuronal acetylcholine receptor; alpha4/beta2, sequence (P12390 whole entry): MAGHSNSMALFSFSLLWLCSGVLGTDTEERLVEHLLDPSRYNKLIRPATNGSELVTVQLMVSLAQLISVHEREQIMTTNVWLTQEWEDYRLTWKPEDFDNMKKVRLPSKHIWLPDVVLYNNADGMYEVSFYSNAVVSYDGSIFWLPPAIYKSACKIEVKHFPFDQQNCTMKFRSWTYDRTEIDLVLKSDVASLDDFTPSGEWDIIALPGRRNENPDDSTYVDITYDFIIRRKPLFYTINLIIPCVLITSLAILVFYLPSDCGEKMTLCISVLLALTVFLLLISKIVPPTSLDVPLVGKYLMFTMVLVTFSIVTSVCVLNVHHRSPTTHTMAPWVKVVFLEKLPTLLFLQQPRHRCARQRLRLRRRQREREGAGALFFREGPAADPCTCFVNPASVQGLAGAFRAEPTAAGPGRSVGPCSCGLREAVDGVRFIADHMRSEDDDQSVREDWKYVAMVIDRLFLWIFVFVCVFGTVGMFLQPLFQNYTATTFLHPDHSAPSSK

[3] = Displacement of [3H]epibatadine from rat forebrain nAChR expressed in HEK293 cells by scintillation counting analysis; type: cell-based
[4] = molecular target: Neuronal acetylcholine receptor subunit alpha-7 (Rattus norvegicus, UniProt Q05941); experiment: Displacement of [3H]epibatadine from rat alpha7 nAChR expressed in HEK293 cells by scintillation counting analysis; type: cell-based
Neuronal acetylcholine receptor subunit alpha-7, sequence (Q05941 whole entry): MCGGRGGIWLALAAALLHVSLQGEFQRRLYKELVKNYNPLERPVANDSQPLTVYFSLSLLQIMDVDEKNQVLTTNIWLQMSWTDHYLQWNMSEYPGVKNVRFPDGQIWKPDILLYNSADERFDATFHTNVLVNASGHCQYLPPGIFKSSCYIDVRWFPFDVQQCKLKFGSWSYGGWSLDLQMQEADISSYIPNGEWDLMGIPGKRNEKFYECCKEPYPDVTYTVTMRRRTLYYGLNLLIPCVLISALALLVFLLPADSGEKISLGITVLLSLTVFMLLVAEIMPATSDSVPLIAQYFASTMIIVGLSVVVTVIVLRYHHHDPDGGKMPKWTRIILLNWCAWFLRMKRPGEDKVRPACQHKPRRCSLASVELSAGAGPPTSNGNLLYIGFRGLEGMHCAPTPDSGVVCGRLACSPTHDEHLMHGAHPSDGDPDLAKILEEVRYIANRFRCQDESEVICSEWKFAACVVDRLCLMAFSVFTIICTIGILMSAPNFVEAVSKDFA

[5] = species on record: Rattus norvegicus; experiment: Selectivity ratio of Ki for rat alpha3beta4 nAChR to Ki for rat alpha4beta2 nAChR

Structure (SMILES) | Ki [1] | Ki [2] | Ki [3] | Ki [4] | Ratio Ki [5]
CCCCC#Cc1cncc(OC[C@@H]2CCN2)c1 | 1700 nM | 0.1 nM | 0.29 nM | 1900 nM | 17000
[N-]=[N+]=NCCCCC#Cc1cncc(OC[C@@H]2CCN2)c1 | 3400 nM | 0.086 nM | 0.36 nM | 2700 nM | 40000
c1ncc(-c2nnn3c2CCCC3)cc1OC[C@@H]1CCN1 | 64000 nM | 10 nM | 48 nM | 51000 nM | 6200
CCCCC#Cc1cncc(OC[C@@H]2CCCN2)c1 | 18000 nM | 1.2 nM | 5.8 nM | 35000 nM | 15000
CCCCC#Cc1cncc(OC[C@H]2CCN2)c1 | 5200 nM | 0.5 nM | 0.92 nM | 13000 nM | 10000
CCCCC#Cc1cncc(OC[C@H]2CCCN2)c1 | 12000 nM | 0.49 nM | 7.7 nM | 9100 nM | 24000
OCCCCc1cn(-c2cncc(OC[C@@H]3CCN3)c2)nn1 | 77000 nM | 1.3 nM | 8 nM | 100000 nM | 59000
